Source: ChEMBL document CHEMBL1201862, “PubChem BioAssay data set” (2004)
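48-hour exposure; five concentrations; linearly interpolated endpoints. GI50 = concentration required for 50% inhibition of growth.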 Calls of active or inactive are those of the source. Rule as the data show it: active = GI50 up to about 1.1 µM and inactive = higher. Where a SMILES comes first, the peptide text is derived from it. The star is where a group is joined. Cbz = O=C(OCc1ccccc1)*

Legend:
Test in all cases: DTP human tumour cell line panel, 48 h
UACC-257 = test system: UACC-257
SF-268 = test system: SF-268
MDA-N = test system: MDA-N
SK-MEL-28 = test system: SK-MEL-28
NCI-H522 = test system: NCI-H522
PC-3 = test system: PC-3
OVCAR-8 = test system: OVCAR-8
DU-145 = test system: DU-145
SK-OV-3 = test system: SK-OV-3
Malme-3M = test system: Malme-3M
HCT-116 = test system: HCT-116
SN12C = test system: SN12C
HL-60 = test system: HL-60
MDA-MB-435 = test system: MDA-MB-435
MOLT-4 = test system: MOLT-4
ACHN = test system: ACHN
CAKI-1 = test system: CAKI-1
HCT-15 = test system: HCT-15
K562 = test system: K562

SMILES	GI50 (UACC-257)	GI50 (SF-268)	GI50 (MDA-N)	GI50 (SK-MEL-28)	GI50 (NCI-H522)	GI50 (PC-3)	GI50 (OVCAR-8)	GI50 (DU-145)	GI50 (SK-OV-3)	GI50 (Malme-3M)	GI50 (HCT-116)	GI50 (SN12C)	GI50 (HL-60)	GI50 (MDA-MB-435)	GI50 (MOLT-4)	GI50 (ACHN)	GI50 (CAKI-1)	GI50 (HCT-15)	GI50 (K562)
C/C=C1\CC(C(=O)OCC)CCCCCCCCCCC1=O (centres undefined)	37.8 µM (inactive)	53.5 µM (inactive)	29.4 µM (inactive)	> 100 µM (inactive)	25.5 µM (inactive)	47.9 µM (inactive)	43.3 µM (inactive)	54.3 µM (inactive)	> 100 µM (inactive)	32.4 µM (inactive)	33.4 µM (inactive)	26.6 µM (inactive)	36.6 µM (inactive)	17.5 µM (inactive)	29 µM (inactive)	75 µM (inactive)	> 100 µM (inactive)	34.6 µM	–
C[C@H]1CC[C@H]([C@@H](C)[C@H]2[C@@H](O)C[C@H]3[C@@H]4CC[C@H]5C[C@@H](O)CC[C@]5(C)[C@H]4CC[C@]23C)NC1	18.4 µM (inactive)	23.1 µM (inactive)	21.3 µM (inactive)	18.7 µM (inactive)	15.8 µM (inactive)	12.4 µM (inactive)	15 µM (inactive)	16.2 µM (inactive)	15.9 µM (inactive)	15.7 µM (inactive)	15.6 µM (inactive)	16.3 µM (inactive)	4.45 µM (inactive)	16.7 µM (inactive)	9.66 µM (inactive)	21.2 µM (inactive)	16.1 µM (inactive)	17 µM	–
CCSc1n/c(=C\c2ccc(N(C)C)cc2)c2nnnn12	> 100 µM (inactive)	> 100 µM (inactive)	> 100 µM (inactive)	> 100 µM (inactive)	> 100 µM (inactive)	> 100 µM (inactive)	> 100 µM (inactive)	> 100 µM (inactive)	> 100 µM (inactive)	> 100 µM (inactive)	> 100 µM (inactive)	> 100 µM (inactive)	> 100 µM (inactive)	> 100 µM (inactive)	> 100 µM (inactive)	> 100 µM (inactive)	> 100 µM (inactive)	> 100 µM	–
COC(=O)CCc1ccc2c(c1)C(=O)CC2	> 100 µM (inactive)	> 100 µM (inactive)	> 100 µM (inactive)	> 100 µM (inactive)	> 100 µM (inactive)	> 100 µM (inactive)	> 100 µM (inactive)	> 100 µM (inactive)	> 100 µM (inactive)	> 100 µM (inactive)	> 100 µM (inactive)	–	> 100 µM (inactive)	> 100 µM (inactive)	> 100 µM (inactive)	> 100 µM (inactive)	–	> 100 µM	> 100 µM (inactive)
CC(C)=CCN=C(N)N	> 100 µM (inactive)	> 100 µM (inactive)	> 100 µM (inactive)	> 100 µM (inactive)	> 100 µM (inactive)	> 100 µM (inactive)	> 100 µM (inactive)	> 100 µM (inactive)	> 100 µM (inactive)	> 100 µM (inactive)	> 100 µM (inactive)	> 100 µM (inactive)	45.8 µM (inactive)	> 100 µM (inactive)	51.2 µM (inactive)	> 100 µM (inactive)	> 100 µM (inactive)	> 100 µM	–
O=C1Nc2ccccc2C(=O)O/C(Cc2ccccc2)=N\c2ccccc21	54.6 µM (inactive)	> 100 µM (inactive)	> 100 µM (inactive)	> 100 µM (inactive)	> 100 µM (inactive)	> 100 µM (inactive)	> 100 µM (inactive)	> 100 µM (inactive)	> 100 µM (inactive)	–	> 100 µM (inactive)	> 100 µM (inactive)	> 100 µM (inactive)	> 100 µM (inactive)	> 100 µM (inactive)	> 100 µM (inactive)	> 100 µM (inactive)	> 100 µM	> 100 µM (inactive)
CN(C)CCCNc1ccnc2cc([N+](=O)[O-])ccc12	13.9 µM (inactive)	21 µM (inactive)	12.1 µM (inactive)	36.2 µM (inactive)	3.6 µM (inactive)	14.1 µM (inactive)	13.9 µM (inactive)	27.8 µM (inactive)	21.2 µM (inactive)	3.44 µM (inactive)	6.31 µM (inactive)	17.2 µM (inactive)	–	14.8 µM (inactive)	> 100 µM (inactive)	19 µM (inactive)	26.9 µM (inactive)	12.1 µM	> 100 µM (inactive)
CCOC(=O)CCC(NC(=O)C(CC(=O)OC)NC(=O)OCc1ccccc1)C(=O)NC(CC(=O)OC)C(=O)NC(CCC(=O)OCC)C(=O)NC(CC(=O)OC)C(=O)NC(CCC(=O)OCC)C(=O)NC(CC(=O)OCC)C(=O)OCC (centres undefined) (Cbz-D(OMe)E(OEt)D(OMe)E(OEt)D(OMe)E(OEt)D(OEt)-OEt; configuration not given here)	> 100 µM (inactive)	–	> 100 µM (inactive)	–	> 100 µM (inactive)	> 100 µM (inactive)	> 100 µM (inactive)	> 100 µM (inactive)	–	> 100 µM (inactive)	> 100 µM (inactive)	> 100 µM (inactive)	> 100 µM (inactive)	> 100 µM (inactive)	> 100 µM (inactive)	> 100 µM (inactive)	–	> 100 µM	> 100 µM (inactive)
CSc1nc(C)c(CCCl)c(Cl)n1	> 100 µM (inactive)	> 100 µM (inactive)	49.8 µM (inactive)	> 100 µM (inactive)	20.6 µM (inactive)	> 100 µM (inactive)	> 100 µM (inactive)	> 100 µM (inactive)	> 100 µM (inactive)	> 100 µM (inactive)	36.6 µM (inactive)	52.6 µM (inactive)	–	34.1 µM (inactive)	27.4 µM (inactive)	> 100 µM (inactive)	> 100 µM (inactive)	> 100 µM	31.8 µM (inactive)
CC1C(c2ccccc2)NC(c2ccccc2)CC1(N)C#N (centres undefined)	48 µM (inactive)	> 100 µM (inactive)	> 100 µM (inactive)	> 100 µM (inactive)	> 100 µM (inactive)	> 100 µM (inactive)	> 100 µM (inactive)	> 100 µM (inactive)	> 100 µM (inactive)	–	> 100 µM (inactive)	> 100 µM (inactive)	> 100 µM (inactive)	> 100 µM (inactive)	> 100 µM (inactive)	> 100 µM (inactive)	> 100 µM (inactive)	> 100 µM	> 100 µM (inactive)
O=C1CC(c2ccc(Cl)cc2)C2(C(=O)NC(=O)NC2=O)C(c2ccc(Cl)cc2)C1 (centres undefined)	30.8 µM (inactive)	42.8 µM (inactive)	19.8 µM (inactive)	18.2 µM (inactive)	17.5 µM (inactive)	30.5 µM (inactive)	27.5 µM (inactive)	21.7 µM (inactive)	–	17.1 µM (inactive)	31.6 µM (inactive)	21.6 µM (inactive)	19.5 µM (inactive)	17.3 µM (inactive)	0.0075 µM (active)	49 µM (inactive)	35.2 µM (inactive)	22.9 µM	7.5 µM (inactive)
CCOC(=O)c1cn2c(n1)sc1cc(C)c(C)cc12	31.8 µM (inactive)	24 µM (inactive)	6.04 µM (inactive)	19.2 µM (inactive)	31 µM (inactive)	21.2 µM (inactive)	24.2 µM (inactive)	21.4 µM (inactive)	26.5 µM (inactive)	17.3 µM (inactive)	17.9 µM (inactive)	19.1 µM (inactive)	–	20.3 µM (inactive)	29 µM (inactive)	19.1 µM (inactive)	20.6 µM (inactive)	27.9 µM	14.4 µM (inactive)
C[C@]12O[C@@]3(C)O[C@@]3(C)[C@]3(C)O[C@]3(C)[C@@]1(C)O2	> 100 µM (inactive)	> 100 µM (inactive)	> 100 µM (inactive)	> 100 µM (inactive)	> 100 µM (inactive)	> 100 µM (inactive)	> 100 µM (inactive)	> 100 µM (inactive)	> 100 µM (inactive)	> 100 µM (inactive)	> 100 µM (inactive)	> 100 µM (inactive)	–	> 100 µM (inactive)	> 100 µM (inactive)	> 100 µM (inactive)	> 100 µM (inactive)	> 100 µM	> 100 µM (inactive)
C#CCN(C(=O)C(F)(F)F)C(/C=C\C(=O)OC)(C(=O)OCC)C(=O)OCC	–	> 100 µM (inactive)	> 100 µM (inactive)	> 100 µM (inactive)	> 100 µM (inactive)	> 100 µM (inactive)	> 100 µM (inactive)	> 100 µM (inactive)	> 100 µM (inactive)	> 100 µM (inactive)	–	> 100 µM (inactive)	> 100 µM (inactive)	> 100 µM (inactive)	> 100 µM (inactive)	> 100 µM (inactive)	–	> 100 µM	> 100 µM (inactive)
COc1ccc(N[S+]([O-])c2cccc(C)c2)cc1 (centres undefined)	> 100 µM (inactive)	30.5 µM (inactive)	> 100 µM (inactive)	33 µM (inactive)	8.59 µM (inactive)	> 100 µM (inactive)	52.1 µM (inactive)	> 100 µM (inactive)	–	75.5 µM (inactive)	32.7 µM (inactive)	> 100 µM (inactive)	25.7 µM (inactive)	34.9 µM (inactive)	35.3 µM (inactive)	7.76 µM (inactive)	98.6 µM (inactive)	5.21 µM	9.73 µM (inactive)
